For 14 molecules, IC50 results are on record in patent US9296757B2, “Substituted benzothienopyrimidines” (BAYER PHARMA AKTIENGESELLSCHAFT, priority 2012, dated 2016).

For the assay, the target named is human full-length MKNK1 (Homo sapiens (Human), UniProt Q9BUB5, T344D). Put plainly: MKNK1 kinase high ATP assay (TR-FRET). Type of assay: biochemical. The following applies: high ATP (2 mM final), 15 min preincubation with enzyme. Put shortly: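 GST-tagged full-length MKNK1 (T344D), insect-cell expressed, preincubated 15 min at 22 °C with compound, then reacted 30 min at 22 °C with 2 mM ATP and 0.06 μM biotinylated peptide in HEPES pH 7.5 buffer (final concentrations). Phospho-peptide detected by TR-FRET (665/620 nm ratio), normalised to no-inhibitor and no-enzyme controls.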
human full-length MKNK1, sequence (Q9BUB5 other isoform, or with tags, fused parts or gaps T344D): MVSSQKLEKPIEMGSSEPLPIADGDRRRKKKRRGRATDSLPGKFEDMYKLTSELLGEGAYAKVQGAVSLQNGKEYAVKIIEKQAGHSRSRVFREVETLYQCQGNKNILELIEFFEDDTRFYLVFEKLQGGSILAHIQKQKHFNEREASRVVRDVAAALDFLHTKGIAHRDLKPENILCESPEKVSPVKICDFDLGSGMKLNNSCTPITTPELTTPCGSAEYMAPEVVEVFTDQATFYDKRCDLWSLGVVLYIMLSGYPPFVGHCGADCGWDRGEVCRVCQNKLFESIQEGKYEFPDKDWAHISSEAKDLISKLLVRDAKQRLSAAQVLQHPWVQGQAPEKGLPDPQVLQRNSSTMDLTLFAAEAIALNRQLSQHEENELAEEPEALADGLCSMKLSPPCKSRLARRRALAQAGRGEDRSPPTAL
Usually IC50 stands for the concentration at which inhibition is half-maximal. Read a low IC50 as greater potency in that assay. For the molecule `CC(=O)N(C)C1CCN(C(=O)C2CCc3c(sc4ncnc(Nc5ccc6[nH]c(=O)sc6c5)c34)C2)C1` (racemic) [Example 61, N-methyl-N-[(3RS)-1-({(7RS)-4-[(2-oxo-2,3-dihydro-1,3-benzothiazol-6-yl)amino]-5,6,7,8-tetrahydro[1]benzothieno[2,3-d]pyrimidin-7-yl}carbonyl)pyrrolidin-3-yl]acetamide], the midpoint of inhibition, the IC50, lay at 0.032 µM.
`O=C(C1CCc2c(sc3ncnc(Nc4ccc5[nH]c(=O)sc5c4)c23)C1)N1CCN2CCCCC2C1` (racemic) [Example 64, 6-({(7RS)-7-[(9aRS)-octahydro-2H-pyrido[1,2-a]pyrazin-2-ylcarbonyl]-5,6,7,8-tetrahydro[1]benzothieno[2,3-d]pyrimidin-4-yl}amino)-1,3-benzothiazol-2(3H)-one] registered a half-maximal inhibitory concentration (IC50) of 0.027 µM.
Molecule `COc1cc2[nH]c(=O)sc2cc1Nc1ncnc2sc3c(c12)CCC(C(=O)NC(C)C)C3` (racemic) [Example 31] gave an IC50 of 0.004 µM.
With `O=C(C1CCc2c(sc3ncnc(Nc4ccc5[nH]c(=O)sc5c4)c23)C1)N1CCCC(F)C1` (racemic) [Example 65, 6-{[(7RS)-7-{[(3RS)-3-fluoropiperidin-1-yl]carbonyl}-5,6,7,8-tetrahydro[1]benzothieno[2,3-d]pyrimidin-4-yl]amino}-1,3-benzothiazol-2(3H)-one] the figure was 0.081 µM.
`O=C(C1CCc2c(sc3ncnc(Nc4ccc5[nH]c(=O)sc5c4)c23)C1)N1CCN(CC2CC2)CC1` (racemic) [Example 78, (RS)-6-[(7-{[4-(cyclopropylmethyl)piperazin-1-yl]carbonyl}-5,6,7,8-tetrahydro[1]benzothieno[2,3-d]pyrimidin-4-yl)amino]-1,3-benzothiazol-2(3H)-one] registered an IC50 of 0.034 µM.
With `O=C(C1CCc2c(sc3ncnc(Nc4ccc5[nH]c(=O)sc5c4)c23)C1)N1CCC(CO)CC1` (racemic) [Example 71, (RS)-6-[(7-{[4-(hydroxymethyl)piperidin-1-yl]carbonyl}-5,6,7,8-tetrahydro[1]benzothieno[2,3-d]pyrimidin-4-yl)amino]-1,3-benzothiazol-2(3H)-one] the figure was 0.047 µM; with `CN(C)CCN(Cc1ccccc1)C(=O)C1CCc2c(sc3ncnc(Nc4ccc5[nH]c(=O)sc5c4)c23)C1` (racemic) [Example 36, (RS)-N-benzyl-N-[2-(dimethylamino)ethyl]-4-[(2-oxo-2,3-dihydro-1,3-benzothiazol-6-yl)amino]-5,6,7,8-tetrahydro[1]benzothieno[2,3-d]pyrimidine-7-carboxamide], 0.009 µM.
On to `CCCCN(C)C(=O)C1CCc2c(sc3ncnc(Nc4ccc5[nH]c(=O)sc5c4)c23)C1` (racemic) [Example 41, (RS)-N-butyl-N-methyl-4-[(2-oxo-2,3-dihydro-1,3-benzothiazol-6-yl)amino]-5,6,7,8-tetrahydro[1]benzothieno[2,3-d]pyrimidine-7-carboxamide], for which the IC50 is 0.021 µM.
`CN(CC1CCCO1)C(=O)C1CCc2c(sc3ncnc(Nc4ccc5[nH]c(=O)sc5c4)c23)C1` (racemic) [Example 56, (7RS)-N-methyl-4-[(2-oxo-2,3-dihydro-1,3-benzothiazol-6-yl)amino]-N-[(2RS)-tetrahydrofuran-2-ylmethyl]-5,6,7,8-tetrahydro[1]benzothieno[2,3-d]pyrimidine-7-carboxamide] registered an IC50 of 0.027 µM.
In turn, `O=C(Nc1ccccc1)C1CCc2c(sc3ncnc(Nc4ccc5[nH]c(=O)sc5c4)c23)C1` (racemic) [Example 8, (RS)-4-[(2-Oxo-2,3-dihydro-1,3-benzothiazol-6-yl)amino]-N-phenyl-5,6,7,8-tetrahydro[1]benzothieno[2,3-d]pyrimidine-7-carboxamide] returned an IC50 of 0.033 µM.
`NCC1CCc2c(sc3ncnc(Nc4ccc5[nH]c(=O)sc5c4)c23)C1` (racemic) [Example 20, (RS)-6-{[7-(Aminomethyl)-5,6,7,8-tetrahydro[1]benzothieno[2,3-d]pyrimidin-4-yl]amino}-1,3-benzothiazol-2(3H)-one] had an IC50 of 0.103 µM.
Molecule `O=C(C1CCc2c(sc3ncnc(Nc4ccc5[nH]c(=O)sc5c4)c23)C1)N1CCN(c2ccccn2)CC1` (racemic) [Example 40, (RS)-6-[(7-{[4-(pyridin-2-yl)piperazin-1-yl]carbonyl}-5,6,7,8-tetrahydro[1]benzothieno[2,3-d]pyrimidin-4-yl)amino]-1,3-benzothiazol-2(3H)-one] had an IC50 of 0.065 µM.
`O=C(C1CCc2c(sc3ncnc(Nc4ccc5[nH]c(=O)sc5c4)c23)C1)N1Cc2ccccc2C1` (racemic) [Example 55, (RS)-6-{[7-(1,3-dihydro-2H-isoindol-2-ylcarbonyl)-5,6,7,8-tetrahydro[1]benzothieno[2,3-d]pyrimidin-4-yl]amino}-1,3-benzothiazol-2(3H)-one] registered an IC50 of 0.072 µM.
With `O=C(NCCC(F)(F)F)C1CCc2c(sc3ncnc(Nc4ccc5[nH]c(=O)sc5c4)c23)C1` (racemic) [Example 7, (RS)-4-[(2-Oxo-2,3-dihydro-1,3-benzothiazol-6-yl)amino]-N-(3,3,3-trifluoropropyl)-5,6,7,8-tetrahydro[1]benzothieno[2,3-d]pyrimidine-7-carboxamide] the figure was 0.042 µM.
